Active and inactive are the calls of the source. The calls are words filed in the database; no cut-off is given here.
How the values were obtained:
[1] = target: T1, G-protein coupled receptor 39 (Homo sapiens) (UniProt O43194); test: Agonist activity at recombinant human GPR39 expressed in CHO-K1 cells assessed as increase of Zn2+-induced cAMP production preincubated for 30 mins measured after 60 mins relative to Zn+2; format: functional, cell-based
T1 sequence (whole entry): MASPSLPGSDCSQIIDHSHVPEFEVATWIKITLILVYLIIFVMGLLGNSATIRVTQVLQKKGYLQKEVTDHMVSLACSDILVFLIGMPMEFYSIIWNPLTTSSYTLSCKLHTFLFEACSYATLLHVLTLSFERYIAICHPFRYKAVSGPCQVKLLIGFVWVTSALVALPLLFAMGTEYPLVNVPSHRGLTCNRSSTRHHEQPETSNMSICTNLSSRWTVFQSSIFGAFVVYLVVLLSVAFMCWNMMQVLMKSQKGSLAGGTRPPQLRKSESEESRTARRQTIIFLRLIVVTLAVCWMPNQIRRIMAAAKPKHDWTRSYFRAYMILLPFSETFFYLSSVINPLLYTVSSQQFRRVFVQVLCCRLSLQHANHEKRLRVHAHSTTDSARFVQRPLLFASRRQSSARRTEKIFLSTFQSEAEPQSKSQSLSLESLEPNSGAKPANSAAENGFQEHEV

[2] = target: T1, G-protein coupled receptor 39 (Homo sapiens); test: Agonist activity at GPR39 in human HT-29 cells assessed as intracellular Ca2+ mobilization up to 30 uM after 72 hrs by FLIPR assay; format: functional, cell-based
[3] = target: T1, G-protein coupled receptor 39 (Homo sapiens); test: Agonist activity at GPR39 in human HT-29 cells assessed as cAMP accumulation up to 30 uM; format: functional, cell-based
[4] = target: T1, G-protein coupled receptor 39 (Homo sapiens); test: Agonist activity at recombinant human GPR39 expressed in CHO-K1 cells assessed as increase of Zn2+-induced intracellular Ca+2 mobilization after 1 hr by Fluo-4 No staining-based FLIPR assay relative to Zn+2; format: cell-based
[5] = target: T2, G-protein coupled receptor 39 (Homo sapiens, UniProt O43194); test: Agonist activity at recombinant human GPR39 expressed in CHO-K1 cells assessed as increase of Zn2+-induced intracellular Ca+2 mobilization after 1 hr by Fluo-4 No staining-based FLIPR assay; format: cell-based
T2 sequence (O43194 whole entry): T1 sequence (whole entry)

[6] = target: T2, G-protein coupled receptor 39; test: Agonist activity at recombinant human GPR39 expressed in CHO-K1 cells assessed as increase of Zn2+-induced cAMP production preincubated for 30 mins measured after 60 mins; format: functional, cell-based
[7] = Apparent permeability of the compound; format: physicochemical; settings: not told
[8] = target: cGMP-inhibited 3',5'-cyclic phosphodiesterase 3A (Homo sapiens, UniProt Q14432); test: Inhibition of PDE3a (unknown origin)
[9] = Apparent permeability across MDCK cells; format: ADME, cell-based, Canis lupus familiaris; settings: dog
[10] = target: T3, Protein Gpr39 (Rattus norvegicus) (UniProt A6QR73); test: Agonist activity at GPR39 in rat INS-1 cells assessed as effect on glucose-stimulated insulin secretion; format: cell-based; settings: INS1
T3 sequence (whole entry): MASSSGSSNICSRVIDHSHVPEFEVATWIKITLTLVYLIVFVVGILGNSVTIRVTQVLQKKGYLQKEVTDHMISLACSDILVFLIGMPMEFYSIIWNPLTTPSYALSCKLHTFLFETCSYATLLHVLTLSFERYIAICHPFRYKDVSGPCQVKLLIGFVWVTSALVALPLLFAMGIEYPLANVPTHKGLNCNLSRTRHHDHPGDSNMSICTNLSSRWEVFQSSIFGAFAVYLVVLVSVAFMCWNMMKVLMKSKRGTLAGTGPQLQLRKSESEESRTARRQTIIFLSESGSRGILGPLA

[11] = target: T2, G-protein coupled receptor 39; test: Agonist activity at GPR39 in human HT-29 cells assessed as increase in intracellular Ca2+ mobilization after 72 hrs by FLIPR assay; format: functional, cell-based
[12] = target: T1, G-protein coupled receptor 39 (Homo sapiens); test: Agonist activity at GPR39 in human islets assessed as 11.2 mM glucose-stimulated insulin secretion up to 10 uM after 1 hr
[13] = target: cGMP-inhibited 3',5'-cyclic phosphodiesterase 3B (Homo sapiens, UniProt Q13370); test: Inhibition of PDE3B (unknown origin)
[14] = target: T1, G-protein coupled receptor 39 (Homo sapiens); test: Agonist activity at GPR39 in human islets assessed as 2.8 mM glucose-stimulated insulin secretion up to 10 uM after 0.75 hrs
[15] = target: T1, G-protein coupled receptor 39 (Homo sapiens); test: Agonist activity at GPR39 in human HT-29 cells assessed as intracellular Ca2+ mobilization after 72 hrs by FLIPR assay in presence of siRNA; format: functional, cell-based
[16] = target: T1, G-protein coupled receptor 39 (Homo sapiens); test: Agonist activity at GPR39 in human HT-29 cells assessed as cAMP accumulation; format: functional, cell-based

Chain of cGMP-inhibited 3',5'-cyclic phosphodiesterase 3A (Q14432 whole entry): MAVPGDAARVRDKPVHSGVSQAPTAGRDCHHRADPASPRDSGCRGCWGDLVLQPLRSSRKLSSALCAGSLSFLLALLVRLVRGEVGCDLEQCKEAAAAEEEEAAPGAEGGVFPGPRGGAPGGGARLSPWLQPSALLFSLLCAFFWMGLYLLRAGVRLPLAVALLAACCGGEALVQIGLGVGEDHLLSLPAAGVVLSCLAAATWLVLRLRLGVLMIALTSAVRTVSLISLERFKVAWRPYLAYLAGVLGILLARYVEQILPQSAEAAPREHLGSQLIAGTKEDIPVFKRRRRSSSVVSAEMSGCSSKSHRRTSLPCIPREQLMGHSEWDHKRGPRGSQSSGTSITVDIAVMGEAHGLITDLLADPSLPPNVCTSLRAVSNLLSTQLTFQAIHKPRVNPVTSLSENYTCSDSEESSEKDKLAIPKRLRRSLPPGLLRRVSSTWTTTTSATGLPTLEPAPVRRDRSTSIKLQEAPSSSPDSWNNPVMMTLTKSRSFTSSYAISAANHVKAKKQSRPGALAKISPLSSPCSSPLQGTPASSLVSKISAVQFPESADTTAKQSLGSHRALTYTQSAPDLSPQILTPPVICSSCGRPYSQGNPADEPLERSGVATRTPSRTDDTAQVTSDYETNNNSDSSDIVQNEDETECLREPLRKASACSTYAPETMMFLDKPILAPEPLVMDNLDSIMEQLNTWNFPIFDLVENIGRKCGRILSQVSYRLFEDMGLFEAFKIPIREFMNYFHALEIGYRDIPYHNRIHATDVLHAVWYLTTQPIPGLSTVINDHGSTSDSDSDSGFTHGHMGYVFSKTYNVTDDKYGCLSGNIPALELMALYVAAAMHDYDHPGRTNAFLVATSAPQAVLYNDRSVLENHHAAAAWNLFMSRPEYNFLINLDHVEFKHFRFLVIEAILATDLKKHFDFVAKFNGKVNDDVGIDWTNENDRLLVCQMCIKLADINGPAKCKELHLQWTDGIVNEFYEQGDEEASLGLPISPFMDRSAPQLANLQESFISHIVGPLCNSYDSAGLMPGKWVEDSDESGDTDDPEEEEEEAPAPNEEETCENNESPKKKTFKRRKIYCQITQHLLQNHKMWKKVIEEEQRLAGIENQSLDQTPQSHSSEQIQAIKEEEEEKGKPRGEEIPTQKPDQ
Chain of cGMP-inhibited 3',5'-cyclic phosphodiesterase 3B (Q13370 whole entry): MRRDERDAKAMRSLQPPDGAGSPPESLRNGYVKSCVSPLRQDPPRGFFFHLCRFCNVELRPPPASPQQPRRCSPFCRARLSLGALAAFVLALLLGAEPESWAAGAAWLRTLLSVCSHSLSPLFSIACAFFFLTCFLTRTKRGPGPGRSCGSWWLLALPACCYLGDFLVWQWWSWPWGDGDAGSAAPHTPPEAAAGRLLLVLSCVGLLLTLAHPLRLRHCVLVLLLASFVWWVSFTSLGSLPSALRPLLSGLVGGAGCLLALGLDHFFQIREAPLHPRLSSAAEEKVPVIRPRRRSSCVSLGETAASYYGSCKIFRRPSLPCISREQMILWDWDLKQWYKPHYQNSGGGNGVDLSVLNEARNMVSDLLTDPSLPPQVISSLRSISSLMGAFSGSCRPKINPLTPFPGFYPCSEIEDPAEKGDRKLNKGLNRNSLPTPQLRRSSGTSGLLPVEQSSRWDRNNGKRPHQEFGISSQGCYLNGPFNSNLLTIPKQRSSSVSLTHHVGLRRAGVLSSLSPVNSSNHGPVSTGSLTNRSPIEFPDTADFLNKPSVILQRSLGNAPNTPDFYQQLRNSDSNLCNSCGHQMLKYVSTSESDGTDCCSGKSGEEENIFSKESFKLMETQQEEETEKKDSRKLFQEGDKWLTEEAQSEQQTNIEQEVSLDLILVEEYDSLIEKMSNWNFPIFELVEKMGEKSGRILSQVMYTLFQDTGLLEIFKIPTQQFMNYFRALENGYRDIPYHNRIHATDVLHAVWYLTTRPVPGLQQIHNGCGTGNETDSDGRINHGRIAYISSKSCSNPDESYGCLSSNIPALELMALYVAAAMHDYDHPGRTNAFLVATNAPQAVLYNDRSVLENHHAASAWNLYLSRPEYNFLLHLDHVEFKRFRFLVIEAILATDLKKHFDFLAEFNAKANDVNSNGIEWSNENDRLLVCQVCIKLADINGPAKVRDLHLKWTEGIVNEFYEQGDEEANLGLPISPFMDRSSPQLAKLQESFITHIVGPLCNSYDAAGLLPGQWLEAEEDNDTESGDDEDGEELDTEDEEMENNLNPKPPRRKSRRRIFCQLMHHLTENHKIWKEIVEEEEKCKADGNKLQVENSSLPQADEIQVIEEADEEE

Q: For CCc1nc(CN2C[C@H](C(=O)NCc3ccccc3Cl)[C@@H](c3cccnc3)C2)c[nH]1, which Efficacy [1] is on record?
A: 107%

Q: What about the Activity [2] of the same molecule?
A: inactive

Q: What about the Activity [3] of the same molecule?
A: inactive

Q: And the Efficacy [4]?
A: 66%

Q: Which EC50 [5] does the source give for CCc1ncc(CN2C[C@H](C(=O)NCc3ccccc3Cl)[C@@H](c3cccnc3)C2)[nH]1 here?
A: 320 nM

Q: What about the EC50 [6] of the same molecule?
A: 310 nM

Q: What about the Papp [7] of the same molecule?
A: 1.2 ×10⁻⁶ cm/s

Q: For N#Cc1ccc(N2CCN(Cc3cn4cc(Cl)ccc4n3)CC2)nc1, which IC50 [8] is on record?
A: 15000 nM

Q: And the Papp [9]?
A: 7.6 ×10⁻⁶ cm/s

Q: What about the Efficacy [1] of the same molecule?
A: 100%

Q: And the EC50 [5]?
A: 56 nM

Q: What about the Activity [10] of the same molecule?
A: inactive

Q: What about the Efficacy [4] of the same molecule?
A: 76%

Q: What about the EC50 [6] of the same molecule?
A: 12000 nM

Q: And the EC50 [11]?
A: 900 nM

Q: And the Activity [12]?
A: inactive

Q: What about the IC50 [13] of the same molecule?
A: 24000 nM

Q: And the Activity [14]?
A: inactive

Q: What about the Activity [15] of the same molecule?
A: inactive

Q: And the Activity [16]?
A: inactive

Q: Which Efficacy [1] does the source give for CCc1nc(CN2C[C@@H](C(=O)NCc3ccccc3Cl)[C@H](c3cccnc3)C2)c[nH]1 here?
A: 99%

Q: What about the Activity [2] of the same molecule?
A: inactive

Q: And the Activity [3]?
A: inactive

Q: And the Efficacy [4]?
A: 74%

Q: For CCc1ncc(CN2C[C@@H](C(=O)NCc3ccccc3Cl)[C@H](c3cccnc3)C2)[nH]1, which EC50 [5] is on record?
A: 190 nM

Q: What about the EC50 [6] of the same molecule?
A: 840 nM

Q: What about the Papp [7] of the same molecule?
A: 0.8 ×10⁻⁶ cm/s

Q: Which results are given for COc1cccc([C@@H]2CCN(CCc3ccccc3)C[C@H]2C(=O)NCCc2ccccn2)c1 (racemic)?
A: Efficacy [1]: 107%; EC50 [5]: 3100 nM; Efficacy [4]: 82%; EC50 [6]: 4500 nM; Papp [7]: 3.1 ×10⁻⁶ cm/s
